Experimental findings from patent US9353051B2, “Antiviral drugs for treatment or prevention of dengue infection” (Siga Technologies Inc., priority 2007, dated 2016) are described below.

The subject of this assay is Dengue-2 (Strain New Guinea C). Description: viral yield assay against Dengue-2 in Vero cells. The assay is classed as cell-based. To be noted: Dengue virus; Vero cells, MOI 0.1, harvested 48 hours post infection; read-out: Activity (anti-dengue 2 viral activity, EC50). In short, it runs like this:
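Vero cells infected with dengue-2 at MOI 0.1 were treated with compound (DMSO control) at 37° C., harvested 48 h post infection and titered on Vero cells.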

Consider `CCn1c(=O)c2ccccc2n(CC(=O)NCCc2ccc(S(N)(=O)=O)cc2)c1=O` [Compound 101, 2-(3-Ethyl-2,4-dioxo-3,4-dihydro-2H-quinazolin-1-yl)-N-[2-(4-sulfamoyl-phenyl)-ethyl]-acetamide], for which the EC50 is more than 25 µM.
In the case of `Cn1c(=O)c2ccccc2n(CC(=O)NCCc2ccc(S(N)(=O)=O)cc2)c1=O` [Compound 102, 2-(3-Methyl-2,4-dioxo-3,4-dihydro-2H-quinazolin-1-yl)-N-[2-(4-sulfamoyl-phenyl)-ethyl]-acetamide], the EC50 is more than 25 µM.
As for `CC(=O)NCCc1ccc(S(=O)(=O)Nc2ccc3ncn(C)c(=O)c3c2)cc1` [Compound 103, N-{2-[4-(3-Methyl-4-oxo-3,4-dihydro-quinazolin-6-ylsulfamoyl)-phenyl]-ethyl}-acetamide], the figure is more than 25 µM.
As for `CC(=O)NCCc1ccc(S(=O)(=O)Nc2ccc3ncn(Cc4ccccc4)c(=O)c3c2)cc1` [Compound 104, N-{2-[4-(3-Benzyl-4-oxo-3,4-dihydro-quinazolin-6-ylsulfamoyl)-phenyl]-ethyl}-acetamide], the figure is more than 25 µM; as for `CCN(CC)S(=O)(=O)c1cc(NC(=O)Cn2cnc3ccccc3c2=O)ccc1C` [Compound 105, N-(3-Diethylsulfamoyl-4-methyl-phenyl)-2-(4-oxo-4H-quinazolin-3-yl)-acetamide], more than 25 µM.
As for `NS(=O)(=O)c1cccc(NC(=O)Cn2cnc3ccccc3c2=O)c1` [Compound 106, 2-(4-Oxo-4H-quinazolin-3-yl)-N-(3-sulfamoyl-phenyl)-acetamide], the figure is more than 25 µM; as for `CN(C)S(=O)(=O)c1cccc(NC(=O)Cn2cnc3ccccc3c2=O)c1` [Compound 107, N-(3-Dimethylsulfamoyl-phenyl)-2-(4-oxo-4H-quinazolin-3-yl)-acetamide], more than 25 µM; as for `NS(=O)(=O)c1ccc(NC(=O)Cn2nc(C(=O)O)c3ccccc3c2=O)cc1` [Compound 108, 4-Oxo-3-[(4-sulfamoyl-phenylcarbamoyl)-methyl]-3,4-dihydro-phthalazine-1-carboxylic acid], more than 25 µM.
Regarding `NS(=O)(=O)c1ccc(NC(=O)CCc2nc3ccccc3c(=O)[nH]2)cc1` [Compound 109, 3-(4-Oxo-3,4-dihydro-quinazolin-2-yl)-N-(4-sulfamoyl-phenyl)-propionamide], the EC50 is more than 25 µM.
As to `NS(=O)(=O)c1ccc(NC(=O)Cn2cnc3cc([N+](=O)[O-])ccc3c2=O)cc1` [Compound 110, 2-(7-Nitro-4-oxo-4H-quinazolin-3-yl)-N-(4-sulfamoyl-phenyl)-acetamide], the EC50 was more than 25 µM.
Next, `NS(=O)(=O)c1ccc(NC(=O)COC(=O)Cn2cnc3ccccc3c2=O)cc1` [Compound 111, (4-Oxo-4H-quinazolin-3-yl)-acetic acid (4-sulfamoyl-phenylcarbamoyl)-methyl ester]: more than 25 µM; `CN(Cc1nc2ccccc2c(=O)[nH]1)C(=O)c1ccc(S(=O)(=O)N(C)C)cc1` [Compound 112, 4-Dimethylsulfamoyl-N-methyl-N-(4-oxo-3,4-dihydro-quinazolin-2-ylmethyl)-benzamide]: more than 25 µM; `O=C(Cn1nnc2ccccc2c1=O)Nc1ccc(S(=O)(=O)N2CCCC2)cc1` [Compound 113, 2-(4-Oxo-4H-benzo[d][1,2,3]triazin-3-yl)-N-[4-(pyrrolidine-1-sulfonyl)-phenyl]-acetamide]: more than 25 µM.
Next, `CCN(CC(=O)NCCc1ccc(S(N)(=O)=O)cc1)Cc1nc2ccccc2c(=O)[nH]1` [Compound 114, 2-[Ethyl-(4-oxo-3,4-dihydro-quinazolin-2-ylmethyl)-arnino]-N-[2-(4-sulfamoyl-phenyl)-ethyl]-acetamide]: more than 25 µM; `CCN(CC(=O)Nc1ccc(S(=O)(=O)N(C)C)cc1)Cc1nc2ccccc2c(=O)[nH]1` [Compound 115, N-(4-Dimethylsulfamoyl-phenyl)-2-[ethyl-(4-oxo-3,4-dihydro-quinazolin-2-ylmethyl)-amino]-acetamide]: more than 25 µM; `NS(=O)(=O)c1ccc(NC(=O)COC(=O)CCc2nc3ccccc3c(=O)[nH]2)cc1` [Compound 116, 3-(4-Oxo-3,4-dihydro-quinazolin-2-yl)-propionic acid (4-sulfamoyl-phenylcarbamoyl)-methyl ester]: more than 25 µM.
Consider `Cc1ccc(S(=O)(=O)N(C)c2ccc(OC(=O)Cn3cnc4ccccc4c3=O)cc2)cc1C` [Compound 117, (4-Oxo-4H-quinazolin-3-yl)-acetic acid 4-[(3,4-dimethyl-benzenesulfonyl)-methyl-amino]-phenyl ester], for which the EC50 was more than 25 µM.
Next, `CCN(CC(=O)NCCc1ccc(S(N)(=O)=O)cc1)Cc1nc2cc(OC)c(OC)cc2c(=O)[nH]1` [Compound 118, 2-[(6,7-Dimethoxy-4-oxo-3,4-dihydro-quinazolin-2-ylmethyl)-ethyl-amino]-N-[2-(4-sulfamoyl-phenyl)-ethyl]-acetamide]: more than 25 µM; `NS(=O)(=O)c1ccc(NC(=O)Cn2c(=O)cnc3ccccc32)cc1` [Compound 119, 2-(2-Oxo-2H-quinoxalin-1-yl)-N-(4-sulfamoyl-phenyl)-acetamide]: more than 25 µM.
As for `CCN(CC(=O)Nc1ccc(S(N)(=O)=O)cc1)Cc1nc2cc(OC)c(OC)cc2c(=O)[nH]1` [Compound 120, 2-[(6,7-Dimethoxy-4-oxo-3,4-dihydro-quinazolin-2-ylmethyl)-ethyl-amino]-N-(4-sulfamoyl-phenyl)-acetamide], the figure is more than 25 µM; as for `O=C(Cn1cnc2ccccc2c1=O)Nc1cccc(S(=O)(=O)N2CCCC2)c1` [Compound 121, 2-(4-Oxo-4H-quinazolin-3-yl)-N-[3-(pyrrolidine-1-sulfonyl)-phenyl]-acetamide], more than 25 µM.
On to `CN(c1ccccc1)S(=O)(=O)c1cccc(NC(=O)Cn2cnc3ccccc3c2=O)c1` [Compound 122, N-[3-(Methyl-phenyl-sulfamoyl)-phenyl]-2-(4-oxo-4H-quinazolin-3-yl)-acetamide], for which the EC50 is more than 25 µM.
As for `O=C(Cn1cnc2cc([N+](=O)[O-])ccc2c1=O)Nc1ccc(S(=O)(=O)N2CCCC2)cc1` [Compound 123, 2-(7-Nitro-4-oxo-4H-quinazolin-3-yl)-N-[4-(pyrrolidine-1-sulfonyl)-phenyl]-acetamide], the figure is more than 25 µM; as for `O=C(COC(=O)Cn1cnc2ccccc2c1=O)Nc1ccc(S(=O)(=O)N2CCCC2)cc1` [Compound 124, (4-Oxo-4H-quinazolin-3-yl)-acetic acid [4-(pyrrolidine-1-sulfonyl)-phenylcarbamoyl]-methyl ester], more than 25 µM.
Regarding `COc1ccc(S(=O)(=O)N(C)C)cc1NC(=O)COC(=O)Cn1cnc2ccccc2c1=O` [Compound 125, (4-Oxo-4H-quinazolin-3-yl)-acetic acid (5-dimethylsulfamoyl-2-methoxy-phenylcarbamoyl)-methyl ester], the EC50 was more than 25 µM.
As for `COc1ccc(S(=O)(=O)N(C)C)cc1NC(=O)Cn1cnc2cc([N+](=O)[O-])ccc2c1=O` [Compound 126, N-(5-Dimethylsulfamoyl-2-methoxy-phenyl)-2-(7-nitro-4-oxo-4H-quinazolin-3-yl)-acetamide], the figure is more than 25 µM; as for `O=C(Cn1cnc2ccccc2c1=O)Nc1ccc(S(=O)(=O)O)cc1` [Compound 127, 4-[2-(4-Oxo-4H-quinazolin-3-yl)-acetylamino]-benzenesulfonic acid], more than 25 µM.
As for `CN(C)S(=O)(=O)c1cccc(COC(=O)Cn2cnc3ccccc3c2=O)c1` [Compound 128, (4-Oxo-4H-quinazolin-3-yl)-acetic acid 3-dimethylsulfamoyl-benzyl ester], the EC50 is more than 25 µM.
As for `Cc1ccc(S(=O)(=O)N(C)C)cc1NC(=O)Cn1cnc2ccc(Cl)cc2c1=O` [Compound 129, 2-(6-Chloro-4-oxo-4H-quinazolin-3-yl)-N-(5-dimethylsulfamoyl-2-methyl-phenyl)-acetamide], the figure is more than 25 µM; as for `NS(=O)(=O)c1ccc(CCNC(=O)Cn2c(=O)cnc3ccccc32)cc1` [Compound 130, 2-(2-Oxo-2H-quinoxalin-1-yl)-N-[2-(4-sulfamoyl-phenyl)-ethyl]-acetamide], more than 25 µM; as for `NS(=O)(=O)c1cccc(NC(=O)Cn2nnc3ccccc3c2=O)c1` [Compound 131, 2-(4-Oxo-4H-benzo[d][1,2,3]triazin-3-yl)-N-(3-sulfamoyl-phenyl)-acetamide], more than 25 µM.
On to `CC(c1ccc(S(N)(=O)=O)cc1)N(C)C(=O)CCc1nc2ccccc2c(=O)[nH]1` (stereo not shown) [Compound 132, N-Methyl-3-(4-oxo-3,4-dihydro-quinazolin-2-yl)-N-[1-(4-sulfamoyl-phenyl)-ethyl]-propionamide], for which the EC50 was more than 25 µM.
Next, `CC(C)NS(=O)(=O)c1ccc(NC(=O)C(C)N(C)Cc2nc3ccccc3c(=O)[nH]2)cc1` (stereo not shown) [Compound 133, N-(4-Isopropylsulfamoyl-phenyl)-2-[methyl-(4-oxo-3,4-dihydro-quinazolin-2-ylmethyl)-amino]-propionamide]: more than 25 µM; `O=C(Cn1cnc2ccc([N+](=O)[O-])cc2c1=O)Nc1ccc(S(=O)(=O)N2CCCCC2)cc1` [Compound 134, 2-(6-Nitro-4-oxo-4H-quinazolin-3-yl)-N-[4-(piperidine-1-sulfonyl)-phenyl]-acetamide]: more than 25 µM.
Turning to `O=C(Cn1cnc2ccc([N+](=O)[O-])cc2c1=O)Nc1ccc(S(=O)(=O)N2CCOCC2)cc1` [Compound 135, N-[4-(Morpholine-4-sulfonyl)-phenyl]-2-(6-nitro-4-oxo-4H-quinazolin-3-yl)-acetamide], the EC50 was more than 25 µM.
Next, `COc1ccc(NC(=O)Cn2cnc3ccccc3c2=O)cc1S(N)(=O)=O` [Compound 136, N-(4-Methoxy-3-sulfamoyl-phenyl)-2-(4-oxo-4H-quinazolin-3-yl)-acetamide]: more than 25 µM; `Cc1ccc(-n2c(CCC(=O)NCc3ccc(S(N)(=O)=O)cc3)nc3ccccc3c2=O)cc1` [Compound 137, 3-(4-Oxo-3-p-tolyl-3,4-dihydro-quinazolin-2-yl)-N-(4-sulfamoyl-benzyl)-propionamide]: more than 25 µM.
